# Source: patent EP2853565A1, “Glutamate receptor photomodulators” (Consejo Superior De Investigaciones Científicas, priority 2013, dated 2015)
# pIC50: −log10 of the molar value.
# Assays:
# [1] = target: T1, rat metabotropic glutamate receptor 5 (mGlu5) (Rattus norvegicus, UniProt P31424); assay: Single-cell calcium imaging (Fura-2) of quisqualate-evoked calcium oscillations, with photoisomerization by 390/490 nm light; type: cell-based
# T1 construct: expressed in transfected cells; host or cells: HEK tsA201 cells
# T1 sequence (P31424 21-1171 isoform P31424-2 limits assumed): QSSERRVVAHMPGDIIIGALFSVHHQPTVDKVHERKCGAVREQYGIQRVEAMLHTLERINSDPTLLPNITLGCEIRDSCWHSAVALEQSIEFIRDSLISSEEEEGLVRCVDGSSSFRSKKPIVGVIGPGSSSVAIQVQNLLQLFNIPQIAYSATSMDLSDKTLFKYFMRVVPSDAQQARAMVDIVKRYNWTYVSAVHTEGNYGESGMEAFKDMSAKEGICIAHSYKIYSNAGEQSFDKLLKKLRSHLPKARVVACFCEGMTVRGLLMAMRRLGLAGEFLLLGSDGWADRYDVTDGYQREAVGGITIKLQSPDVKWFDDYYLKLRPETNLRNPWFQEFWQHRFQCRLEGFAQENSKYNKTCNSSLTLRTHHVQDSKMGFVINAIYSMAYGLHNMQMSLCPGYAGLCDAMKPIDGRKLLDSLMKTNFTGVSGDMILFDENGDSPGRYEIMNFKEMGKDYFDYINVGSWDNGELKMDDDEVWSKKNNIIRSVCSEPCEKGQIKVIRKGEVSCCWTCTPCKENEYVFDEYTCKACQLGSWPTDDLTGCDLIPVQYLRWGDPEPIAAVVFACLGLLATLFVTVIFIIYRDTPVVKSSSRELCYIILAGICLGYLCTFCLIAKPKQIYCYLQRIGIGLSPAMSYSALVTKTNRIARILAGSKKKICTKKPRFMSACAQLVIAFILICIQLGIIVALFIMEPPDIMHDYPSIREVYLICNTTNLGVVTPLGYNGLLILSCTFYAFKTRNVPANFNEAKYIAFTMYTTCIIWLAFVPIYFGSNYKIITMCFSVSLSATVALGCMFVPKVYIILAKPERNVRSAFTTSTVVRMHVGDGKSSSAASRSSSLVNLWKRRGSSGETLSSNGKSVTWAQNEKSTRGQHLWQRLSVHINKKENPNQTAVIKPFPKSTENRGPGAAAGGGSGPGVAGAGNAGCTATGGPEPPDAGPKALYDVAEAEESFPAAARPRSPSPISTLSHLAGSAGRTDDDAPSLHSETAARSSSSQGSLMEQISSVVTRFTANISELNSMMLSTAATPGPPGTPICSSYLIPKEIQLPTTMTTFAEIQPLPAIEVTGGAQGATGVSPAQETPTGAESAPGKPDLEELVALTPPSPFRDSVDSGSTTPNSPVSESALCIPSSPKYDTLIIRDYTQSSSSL
# Protocol: Cell Culture and Transient Transfection: Human embryonic kidney (HEK) tsA201 cells were maintained at 37 °C and humidified atmosphere with 5% CO2; cells were grown in Dulbecco's Modified Eagle's Medium/Nutrient Mixture F-12 Ham (DMEM/F12, 1:1) medium, supplemented with 10% Fetal Bovine Serum (FBS) and antibiotics (1% Penicillin/Streptomycin). Once at confluence, culture flasks were washed twice with PBS and harvested with 300 µl Accutase. Expression of rat mGlu5a was induced by transient transfection of the cDNA-containing plasmid with X-tremeGENE 9 DNA Transfection Reagent. For transfection, cells were seeded at a concentration of 10^6 cells per well on 6-multiwell plates with a final volume of 2ml, and immediately transfected following manufacturer's instructions (100 µl mixture of 3:1 (µl:µg) of X-tremeGENE 9 DNA TR:mGlu5a plasmid in serum-free medium, 20 minutes incubation). About 24h after transfection, HEK tsA201 cells transiently overexpressing mGlu5a were seeded onto 15 mm glass coverslips pre-treated with Poly-L-Lysine to allow cell adhesion. Seeding concentration was maintained between 2/4·10^5 cells to get preconfluent cultures at the time of experiment. Transfected cells were used for single-cell calcium imaging experiments between 48 and 72 hours after transfection.
# Single-cell Calcium Imaging: At the time of experiments, glass coverslips were mounted onto the recording chamber, and cells were loaded with the high affinity, ratiometric, intracellular calcium indicator Fura-2 AM; the dye was incubated during 30 minutes at 37°C and 5% CO2, at a final concentration of 10 µM in Ca^2+-free extracellular solution (ES, -Ca^2+). We used a ratiometric calcium sensor in order to avoid bleaching artefacts. Cells were then carefully rinsed with fresh ES, three to four times, before the recording chamber was placed on an inverted fully-motorised digital microscope (iMic 2000, Till Photonics, Gräfelfing, Germany). Images were acquired at room temperature with a UV Apochromat 40x oil objective lens (Olympus, Tokio, Japan). Fura-2 AM was excited consecutively for 10 ms at two different wavelengths (340 and 380 nm) as indicated by the manufacturer (Life Technologies, Paisley, UK) by using a Polychrome V light source (Till Photonics) and a 505 nm dichroic beamsplitter (Chroma Technology, Below Falls, VT, USA); emission at 510 nm was filtered by a D535/40nm emission filter (Chroma Technology) and finally collected by a cooled CCD camera (Interline Transfer IMAGO QE, Till Photonics). The fluorescence measurements (excitation + emission recording) were carried out every 2 seconds, and each measurement takes about 10-50 ms. The 340 and 380 nm images were stored by the TILLvisION imaging software (Till Photonics); the ratio of the emission when the sample was excited at 340 nm and the emission when it was excited at 380 nm was recorded and its mean value was calculated for each cell using the same software. Higher ratios correspond to higher intracellular calcium concentrations.
# Agonists and allosteric modulators addition was obtained by carefully pipetting an initial 1:30 dilution of the compound directly into the accessory pool of the recording chamber, obtaining a final dilution of 1:1000 (total DMSO concentration was always lower than 1%). Activation of the agonist was induced in HEK tsA201 mGlu5a transfected cells with the glutamate analogue Quisqualic acid (3 µM). Only evoked, sustained intracellular calcium oscillations were taken into account as consistent cell responses to the application of the agonist; different responses (such as single-peak, peak-and-plateau, etc.), as well as spontaneously oscillating cells, were discarded as unsuitable for calculating the oscillatory frequency.
# Solutions and Reagents: The extracellular solution (ES) used for single-cell calcium imaging contained: 140 mM NaCl, 5.4 mM KCI, 1 mM MgCl2, 10 mM HEPES, 10 mM glucose and 2 mM CaCl2 adjusted to pH 7.4 with NaOH. […]
# rat mGlu5 receptor = target: T2, rat mGlu5 receptor (Rattus norvegicus, UniProt P31424); assay: IP1 accumulation (IP-One HTRF) in transiently transfected HEK293 cells; type: cell-based; settings: IP1 production, HEK293 cells with rat mGlu5 and EAAC1, 30 min incubation, 100 nM Quisqualate
# T2 construct: expressed in transfected cells; host or cells: HEK293 cells (EAAC1 glutamate transporter cotransfected)
# T2 sequence (P31424 21-1203): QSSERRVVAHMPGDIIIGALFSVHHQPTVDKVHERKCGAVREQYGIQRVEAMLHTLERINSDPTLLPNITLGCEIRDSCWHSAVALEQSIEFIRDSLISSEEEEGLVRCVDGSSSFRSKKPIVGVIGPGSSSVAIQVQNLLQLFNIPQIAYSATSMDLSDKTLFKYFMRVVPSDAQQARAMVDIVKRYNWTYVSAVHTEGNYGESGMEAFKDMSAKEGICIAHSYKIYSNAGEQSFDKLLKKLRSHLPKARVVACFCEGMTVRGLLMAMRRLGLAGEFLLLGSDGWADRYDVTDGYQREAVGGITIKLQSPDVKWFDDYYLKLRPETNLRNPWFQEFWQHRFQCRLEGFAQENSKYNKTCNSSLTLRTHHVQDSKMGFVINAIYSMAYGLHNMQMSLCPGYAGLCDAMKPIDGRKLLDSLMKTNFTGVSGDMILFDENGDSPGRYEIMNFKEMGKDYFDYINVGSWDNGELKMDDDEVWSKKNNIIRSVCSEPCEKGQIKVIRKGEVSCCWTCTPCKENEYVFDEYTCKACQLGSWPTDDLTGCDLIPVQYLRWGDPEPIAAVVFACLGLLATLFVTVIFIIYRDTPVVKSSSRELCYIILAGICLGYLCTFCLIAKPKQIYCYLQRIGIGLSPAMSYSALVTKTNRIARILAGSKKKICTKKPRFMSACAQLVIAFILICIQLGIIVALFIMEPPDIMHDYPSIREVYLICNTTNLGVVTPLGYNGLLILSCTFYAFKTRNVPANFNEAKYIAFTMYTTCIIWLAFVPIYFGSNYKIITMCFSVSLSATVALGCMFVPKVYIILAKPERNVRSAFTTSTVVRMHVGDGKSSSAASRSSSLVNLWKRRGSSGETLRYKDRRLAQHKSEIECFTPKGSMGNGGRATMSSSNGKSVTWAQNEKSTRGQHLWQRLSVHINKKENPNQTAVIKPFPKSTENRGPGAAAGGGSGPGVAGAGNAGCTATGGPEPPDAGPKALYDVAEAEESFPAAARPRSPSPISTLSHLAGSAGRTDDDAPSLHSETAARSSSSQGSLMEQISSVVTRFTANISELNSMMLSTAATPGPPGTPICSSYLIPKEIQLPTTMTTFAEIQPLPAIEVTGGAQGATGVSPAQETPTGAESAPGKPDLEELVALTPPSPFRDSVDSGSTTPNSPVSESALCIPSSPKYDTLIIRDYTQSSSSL
# Protocol: Pharmacological experiments on mGlu receptors were performed in HEK293 cells cultured in Dulbecco's modified Eagle's medium (GIBCO-BRL Life Technologies Inc., Cergy Pontoise, France) supplemented with 10% fetal calf serum (FCS, GIBCO-BRL Life Technologies., Cergy Pontoise, France). The compounds were tested on a rat mGlu5 receptor, which was transiently transfected in HEK293 cells by electroporation as described elsewhere [Neuropharmacology 1998, 37, 1043-1051]. Additionally, a plasmid encoding the high-affinity glutamate transporter EAAC1 was cotransfected to prevent the influence of the glutamate released by the cells in the medium. Receptor activity is monitored by measurement of IP1 production using the kit IP-One HTRF® Assay from Cisbio Bioassays (France). For IP1 accumulation measurements, cells were seeded after transfection in polyornithine-coated, black-walled 96-well Polystyrene Cell Culture Microplates (Greiner Bio-One SAS, France) and cultured for 24 h in glutamate/glutamine-free medium (GIBCO-BRL Life Technologies Inc., Cergy Pontoise, France) and antibiotics (penicillin and streptomycin, 100 UmL_1 final, GIBCO-BRL Life Technologies). Media was removed and cells were incubated for 30min in a solution containing the drugs at the tested concentrations. The IP-One stimulation buffer, provided with the kit IP-One (Cisbio Bioassays, France), contains lithium chloride (LiCl) at 50mM that inhibits the degradation of IP1 to Myo-inositol, which is then accumulated in the cell. HTRF reagents, monoclonal antibody specific to IP1 labelled with terbium cryptate and IP1 coupled with the dye d2, diluted in a Lysis buffer were added. After 1 hour of incubation, time resolved fluorescence at 620nm and 665nm was measured with RUBYstar (BMG Labtech, Germany). The specific signal, which results from the energy transfer between […], is proportional to the ratio between the fluorescence emitted at 620 nm and 665 nm, and consequently to the concentration of IP1 in the lysate. All points were determined in triplicate. The dose-response curves were fitted using GraphPad Prism software and the following equation: y= [(ymax-ymin)/(1+10^(LogIC50-x))]+ymin, in which IC50 is the concentration of the compound necessary to obtain the half-maximal effect. (10 µM ≤ IC50 < 50 µM +; 2 µM ≤ IC50 < 10 µM ++; 500 nM ≤ IC50 < 2 µM +++; 100 nM ≤ IC50<500 nM ++++; IC50< 100 nM +++++) Table 14.
# [2] = 3 µM quisqualate, HEK tsA201 cells
pIC50 (rat mGlu5 receptor),SMILES,other results
,"COc1cc(/C=C/c2ccccn2)ccc1NC(=O)c1ccccc1Cl [(E)-47, (E)-2-Chloro-N-(2-methoxy-4-(2-(pyridin-2-yl)vinyl)phenyl)benzamide, reference compound]","effect on mGlu5 response (calcium oscillations) [1, 2]: blocked the oscillatory responses of quisqualate"
,"COc1cc(/N=N\c2ccccn2)ccc1NC(=O)c1ccccc1Cl [(Z)-1c, (Z)-2-chloro-N-(2-methoxy-4-(pyridin-2-yldiazenyl)phenyl)benzamide]","effect on mGlu5 response (calcium oscillations) [1, 2]: increases this response"
,"COc1cc(/C=C\c2ccccn2)ccc1NC(=O)c1ccccc1Cl [(Z)-47, (Z)-2-Chloro-N-(2-methoxy-4-(2-(pyridin-2-yl)vinyl)phenyl)benzamide, reference compound]","effect on mGlu5 response (calcium oscillations) [1, 2]: inhibits mGlu5 activation"
5.70 to 6.30,"COc1cc(/N=N/c2ccccn2)ccc1NC(=O)c1ccc(C(=O)c2ccccc2)cc1 [Compound 1a, (E)-4-Benzoyl-N-(2-methoxy-4-(pyridin-2-yldiazenyl)phenyl)benzamide]",
5.70 to 6.30,"COc1cc(/N=N/c2ccccn2)ccc1NC(=O)c1ccc(Cl)cc1Cl [Compound 1b, (E)-2,4-Dichloro-N-(2-methoxy-4-(pyridin-2-yldiazenyl)phenyl)benzamide]",
> 7.00,"COc1cc(/N=N/c2ccccn2)ccc1NC(=O)c1ccccc1Cl [Compound 1c, (E)-2-Chloro-N-(2-methoxy-4-(pyridin-2-yldiazenyl)phenyl)benzamide]","oscillatory frequency at 390 nm ([1]; 100 nM compound, 390 nm illumination, compared with quisqualate alone): significantly higher than with quisqualate alone; oscillatory responses to 3 µM quisqualate ([1]; 100 nM compound, in the dark or under 490 nm light): completely blocked; effect on mGlu5 response (calcium oscillations) [1, 2]: inhibit mGlu5 response; light dependence of the activity on mGlu5 ([1]; 3 µM quisqualate, UV (380/390 nm) and visible (500/490 nm) light): could be reversibly switched on and off at 390 nm and 490 nm; pIC50 ([1]; in the dark or under 490 nm light, 3 µM quisqualate, HEK tsA201 cells, read-out: IC50 (inhibitory profile on calcium oscillations)): 7.52"
6.30 to 7.00,"COc1cc(/N=N/c2ccccn2)ccc1NC(=O)c1ccccn1 [Compound 1d, (E)-N-(2-Methoxy-4-(pyridin-2-yldiazenyl)phenyl)picolinamide]",
6.30 to 7.00,"COc1cc(/N=N/c2ccccn2)ccc1NC(=O)c1cccnc1 [Compound 1e, (E)-N-(2-Methoxy-4-(pyridin-2-yldiazenyl)phenyl)nicotinamide]",
5.70 to 6.30,"COc1cc(/N=N/c2ccccn2)ccc1NC(=O)c1ccncc1 [Compound 1f, (E)-N-(2-Methoxy-4-(pyridin-2-yldiazenyl)phenyl)isonicotinamide]",
5.00 to 5.70,"N#Cc1cc(/N=N/c2ccccn2)ccc1NC(=O)c1ccccn1 [Compound 1g, (E)-N-(2-Cyano-4-(pyridin-2-yldiazenyl)phenyl)picolinamide]",
5.00 to 5.70,"O=C(Nc1ccc(/N=N/c2ccccn2)cc1)c1ccccn1 [Compound 1h, (E)-N-(4-(Pyridin-2-yldiazenyl)phenyl)picolinamide]",
4.30 to 5.00,"COc1cc(NC(=O)c2ccccn2)ccc1/N=N/c1ccccn1 [Compound 1i, (E)-N-(3-Methoxy-4-(pyridin-2-yldiazenyl)phenyl)picolinamide]",
5.00 to 5.70,"COc1cc(/N=N/c2ccccn2)ccc1N1C(=O)c2ccccc2C1=O [Compound 1j, (E)-2-(2-Methoxy-4-(pyridin-2-yldiazenyl)phenyl)isoindoline-1,3-dione]",
5.70 to 6.30,"COc1cc(/N=N/c2ccccn2)ccc1N(C(=O)c1ccccc1)C(=O)c1ccccc1 [Compound 1k, (E)-N-Benzoyl-N-(2-methoxy-4-(pyridin-2-yldiazenyl)phenyl)benzamide]",
6.30 to 7.00,"COc1cc(/N=N/c2ccccn2)ccc1NC(=O)c1ccccc1 [Compound 1l, (E)-N-(2-Methoxy-4-(pyridin-2-yldiazenyl)phenyl)benzamide]",
> 7.00,"COc1cc(/N=N/c2ccccn2)ccc1NC(=O)C(C)C [Compound 1m, (E)-N-(2-Methoxy-4-(pyridin-2-yldiazenyl)phenyl)isobutyramide]",
> 7.00,"COc1cc(/N=N/c2ccccn2)ccc1NC(=O)C1CCCCC1 [Compound 1n, (E)-N-(2-Methoxy-4-(pyridin-2-yldiazenyl)phenyl)cyclohexanecarboxamide]",
5.70 to 6.30,"COc1cc(/N=N/c2ccccn2)ccc1NC(=O)Nc1ccccc1F [Compound 1o, (E)-1-(2-Fluorophenyl)-3-(2-methoxy-4-(pyridin-2-yldiazenyl)phenyl)urea]",
6.30 to 7.00,"COc1cc(/N=N/c2ccccn2)ccc1NC(=O)c1ccccc1F [Compound 1p, (E)-2-Fluoro-N-(2-methoxy-4-(pyridin-2-yldiazenyl)phenyl)benzamide]",
6.30 to 7.00,"COc1cc(/N=N/c2ccccn2)ccc1NC(=O)c1cscn1 [Compound 1r, (E)-N-(2-Methoxy-4-(pyridin-2-yldiazenyl)phenyl)thiazole-4-carboxamide]",
4.30 to 5.00,"O=C(Nc1ccccn1)c1ccc(/N=N/c2ccccn2)cc1 [Compound 1s, (E)-N-(Pyridin-2-yl)-4-(pyridin-2-yldiazenyl)benzamide]",
4.30 to 5.00,"O=C(Nc1cccc(/N=N/c2ccccn2)c1)c1ccccn1 [Compound 1t, (E)-N-(3-(pyridin-2-yldiazenyl)phenyl)picolinamide]",
